US8969296B2, “TGFP-CAP peptide and its uses” (Caregen Co., Ltd, priority 2007, dated 2015)
Where a SMILES comes first, the peptide text is derived from it.

Tests used:
Mice melanocytes = assay: Inhibition of melanin generation induced by α-MSH (Dooley method); type: cell-based; conditions: α-MSH 200 ng/ml; peptide 10 ng/ml-30 μg/ml; 3 days; absorbance 400 nm
Experimental: The tridecapeptide synthesized in Example 1 was analyzed to decrease levels of melanin pigment. Mice melanocytes cultured were incubated with α-MSH (melanocyte stimulating hormone/Sigma) and then with the tridecapeptide in the determined concentrations to measure inhibition effects on melanin generation. Mice melanocytes were originated from C57BL/6 mice and cultured in DMEM (Dulbecco's modified Eagle's media) containing 10% fetal bovine serum at 37° C. under 5% CO2 conditions. Cells were cultured in a density of 1×10^5 cells/well and their adhesion to culture plates was observed. Then, cells were incubated with materials to be tested for 3 days. The tested materials were prepared in such a manner that components indicated in Table 5 were dissolved in medium and diluted with a mixed solvent of propylene glycol:ethanol:distilled water (5:3:2). Following removal of medium, cells were washed with PBS and treated with 1 N sodium hydroxide. The resultants were analyzed to measure their absorbance values at 400 nm.

tyrosinase = assay: Tyrosinase activity in extracts of treated B16F10 cells (L-DOPA, absorbance 405 nm); type: cell-based; conditions: α-MSH 200 ng/ml, TGFβ-1 10 ng/ml or peptide 10 ng/ml-30 μg/ml, 4 days
Experimental: The tridecapeptide synthesized in Example 1 was analyzed to decrease levels of melanin pigment. B16F10 cells (Korean Cell Line Bank) were plated in a density of 1×10^5 cells/well and cultured in DMEM (Sigma) for 3 days at 37° C. under 5% CO2 conditions. After cell adhesion was observed, medium was changed with a fresh medium containing 2% serum. Cells were incubated with tested materials in determined concentrations for 4 days at 37° C. under 5% CO2 conditions. The tested materials were prepared in such a manner that components indicated in Table 6 were dissolved in medium and diluted with a mixed solvent of propylene glycol:ethanol:distilled water (5:3:2).
Afterwards, cells were harvested and treated with a lysis buffer containing sodiumdodecylsulfate (Sigma) and Triton X-100 (Sigma) to extract intracellular proteins. The extracted proteins were quantitated by the BCA method. For each experiment group, 90 μl of protein solution and 10 μl of L-DOPA (Sigma) were added and reacted for 30 min. The resultants were analyzed to measure their absorbance values at 405 nm for evaluating tyrosinase activities.

NIH-3T3 cells = assay: Stability analysis: remaining activity of solutions stored at 37° C., by MTT assay; type: physicochemical; conditions: 50 mM Tris-HCl (pH 8.0), days 0-100, tridecapeptide 10 μg/ml, TGF-β1 1 μg/ml
Experimental: To evaluate stability of the purified tridecapeptide, NH2-Ile-Trp-Ser-Leu-Asp-Thr-Gln-Tyr-Gly-Gly-Arg-Gly-Asp-OH, it was dissolved in 50 mM Tris-HCl (pH 8.0) to a concentration of 10 μg/ml. A recombinant TGF-β1 (Sigma) produced by E. coli was prepared as a control in the same buffer to a concentration of 1 μg/ml. The prepared solutions were introduced into glass vials and kept to stand at 37° C. Afterwards, the solutions were taken on days 0, 1, 10, 25, 50, 75 and 100 and subjected to a MTT assay (Scudiero, D. A., et al. Cancer Res. 48:4827-4833 (1988)) using NIH-3T3 cells (Korean Cell Line Bank) for determining their remaining activity (FIG. 2). The results were given as relative values to the activity (100%) of sample taken on day 0.

B16F10 cells = assay: Melanosome formation under ERK inhibition by PD98059 (microscopy); type: cell-based; conditions: 10 μM PD98059; with 1 ng/ml transforming growth factor or 30 μg/ml tridecapeptide; 4 days
Experimental: To reveal skin whitening effects of the tridecapeptide synthesized in Example 1 and transforming growth factor, the activation of ERK was inhibited with PD98059 (Sigma) and then its inhibitory influence was evaluated after peptide treatment. B16F10 cells were seeded in 6-well culture dishes in a density of 1×10^5 cells/well and cultured in DMEM for 3 days at 37° C. under 5% CO2 conditions. After cell adhesion was observed, medium was changed with a fresh medium containing 2% serum. The negative control was not subject to any treatment. Cells plated in other two culture dishes were incubated with either 1 ng/ml transforming growth factor or 30 μg/ml tridecapeptide. In addition, cells cultured in other three dishes as a positive control were incubated with 10 μM PD98059 to inhibit ERK phosphorylation. Among them, cells contained in two dishes were incubated for 4 days with either 1 ng/ml transforming growth factor or 30 μg/ml tridecapeptide after 1-hr PD98059 treatment and their morphology was observed under microscopes.

ERK 1/2 = assay: Western blotting of Phospho ERK 1/2 in melanoma cells; type: cell-based; conditions: 10 μM PD98059; with 10 ng/ml TGF-β1 or 30 μg/ml tridecapeptide
Experimental: Furthermore, to clearly verify the influence of TGF-β1 and tridecapeptide on signaling events, melanoma cells were cultured as described above and then incubated simultaneously with 10 μM PD98059 and 30 μg/ml tridecapeptide. Proteins from cell extracts were prepared and developed on SDS-PAGE, followed by electro-transferring to PVDF (polyvinylidene difluoride) membrane (GE Health Care). Afterwards, the PVDF membrane was incubated with Phospho ERK 1/2 antibodies (1/3000 diluted, Cell Signaling, USA) for 4 hr at room temperature. The PVDF membrane was washed with a washing buffer and incubated with HRP-conjugated anti-mouse IgG antibodies (1/5000 diluted, SantaCruz, USA). Then, it was washed twice with a washing buffer and incubated with ECL (enhanced chemilumineseance) solution (GE Health Care) (FIG. 6). In FIG. 6, among PD98059 treatment groups, the symbol “Con” is a group incubated with only 10 μM PD98059 and “TGFb1” is a group incubated with both 10 μM PD98059 and 10 ng/ml TGF-β1.

[1] = tested on: TRP-1 (tyrosinase related protein-1) and TRP-2; assay: Levels of TRP-1 and TRP-2 in melanoma cells (Western blotting); type: cell-based; conditions: 10 μM PD98059; with 10 ng/ml TGF-β1 or 30 μg/ml tridecapeptide
HaCaT = assay: Cytotoxicity test, SRB colorimetric assay, keratinocytes; type: cell-based; conditions: 500 pg/ml-200 μg/ml, 72 hr
Experimental: (§1) To verify cytotoxicity of peptides of this invention on keratinocytes, fibroblasts and melanoma cells, SRB (Sulforhodamine B) colorimetric assay was carried out using HaCaT, NIH3T3 and B16F10 cells according to Rizzino et al method (Rizzino, et al. Cancer Res., 48:4266 (1988)). HaCaT, NIH3T3 or B16F10 cells (Korean Cell Line Bank) were cultured in 250 ml-flasks containing EMEM (Eagle's minimal essential media, Gibco, U.S.A.) supplemented with […] (fetal bovine serum). Cells cultured were treated with 0.25% trypsin solution to detach cells from the bottom of culture flasks and centrifuged to collect cell pellets. Cells were resuspended in EMEM not containing FBS, its aliquot (1×10^5) cells was added to each well of 96-well plates and cultured under 7% CO2 for 24 hr at 37° C. After 24-hr culture, the medium was changed with a fresh medium not containing serum and cells were incubated with the tridecapeptide (500 pg/ml, 10 ng/ml, 1 μg/ml, 100 μg/ml and 200 μg/ml) dissolved in 10% DMSO for 72 hr under the same conditions as described above. After removing supernatants, cells were washed once using PBS and incubated with SRB solution (Sigma). Cells were washed with PBS and observed under a microscope to find cell viability. In addition, absorbance at 590 nm was measured to analyze cell proliferation.

NIH3T3 = assay: Cytotoxicity test, SRB colorimetric assay, fibroblasts; type: cell-based; conditions: 500 pg/ml-200 μg/ml, 72 hr
Experimental: as §1

B16F10 = assay: Cytotoxicity test, SRB colorimetric assay, melanoma cells; type: cell-based; conditions: 500 pg/ml-200 μg/ml, 72 hr
Experimental: as §1

Molecule | melanin generation / melanin content (Mice melanocytes) | tyrosinase activity (tyrosinase) | remaining activity over time (relative to day 0 = 100%) (NIH-3T3 cells) | melanosome number (B16F10 cells) | levels of Phospho ERK 1 and ERK 2 (ERK 1/2) | levels of TRP-1 and TRP-2 [1] | cell number (cytotoxicity) (HaCaT) | cell number (cytotoxicity) (NIH3T3) | cell number (cytotoxicity) (B16F10)
α-MSH: melanocyte stimulating hormone/Sigma, used to induce melanin generation (Ac-SYSMEHFRWGKPV-NH2; ends and bridges not checked; UniProt P01189 138-150, looked up) [reference compound] | highly elevated level of melanin production | highly elevated level of tyrosinase activity |  |  |  |  |  |  | 
TGF-β1: recombinant TGF-β1 (Sigma) produced by E. coli, used as control |  | relatively reduced tyrosinase activity in a dose dependent manner | sharply decreased with the lapse of time | significantly reduced melanosome number | elevated levels of Phoshpo ERK 1 and ERK 2 | decreased |  |  | 
COc1cccc(-c2cc(=O)c3ccccc3o2)c1N [PD98059, reference compound] |  |  |  | a large number of darkish pigments by induced melanosomes | greatly decrease levels of Phoshpo ERK 1 and ERK 2 | increased |  |  | 
CC[C@H](C)[C@H](N)C(=O)N[C@@H](Cc1c[nH]c2ccccc12)C(=O)N[C@@H](CO)C(=O)N[C@@H](CC(C)C)C(=O)N[C@@H](CC(=O)O)C(=O)N[C@H](C(=O)N[C@@H](CCC(N)=O)C(=O)N[C@@H](Cc1ccc(O)cc1)C(=O)NCC(=O)NCC(=O)N[C@@H](CCCNC(=N)N)C(=O)NCC(=O)N[C@@H](CC(=O)O)C(=O)O)[C@@H](C)O [tridecapeptide, NH2-Ile-Trp-Ser-Leu-Asp-Thr-Gln-Tyr-Gly-Gly-Arg-Gly-Asp-OH] (H-IWSLDTQYGGRGD-OH) |  |  |  |  |  |  | the decrease in cell number was not shown | the decrease in cell number was not shown | the decrease in cell number was not shown
